Reference: patent US20240225970A1, “A METHOD OF REDUCING SKIN IRRITATION, COMPRISING THE APPLICATION TO THE SKIN OF AN ALPHA-BISABOLOL PREPARED BY A BIOTECHNOLOGICAL PROCESS” (Givaudan SA, priority 2020, published 2024)

Tested on: pruritus of the scalp
Experiment: Double-blind, placebo-controlled clinical evaluation of scalp itching intensity with shampoos containing 0.5% bisabolol
Assay type: in vivo, human
Conditions: for itching intensity, Mean +/− SEM: scale of 0-10, washed once a day, volunteers with pruritus of the scalp; for itching intensity, Mean +/− SEM / itching intensity, Δ % mean: shampoo with 0.5% by weight bisabolol; for itching intensity, Δ % mean: D14 versus D0 (T0)
Text: Comparison of the improvement in skin soothing effect using shampoos formulated with bio-bisabolol, chemically-produced bisabolol and plant-derived bisabolol. Samples of the bio-bisabolol prepared according to Example 1, a commercially-available synthetic bisabolol and a bisabolol derived from chamomile oil were incorporated into shampoo formulations at 0.5% by weight. An untreated sample of the shampoo was included as placebo. A double-blind, inter-individual and placebo-controlled clinical evaluation was performed on 80 volunteers (both men and women of age 18 and over). The subjects had Fitzpatrick skin types I to IV, and all suffered from pruritus of the scalp. The volunteers washed and rinsed their hair once a day and itching intensity was evaluated on days 1 and 14, using a scale of 0-10, where 0 represents no itching and 10 represents […].

Compound | itching intensity, Mean +/− SEM (D0) | itching intensity, Mean +/− SEM (D14) | itching intensity, Δ % mean | reduction in scalp irritation in comparison with the placebo group (after 14 days of application, p<0.1) | reduction in scalp irritation in comparison with the placebo (in words) (after 14 days of application)
CC(C)=CCC[C@@](C)(O)[C@@H]1CC=C(C)CC1 [Example 1 bio-bisabolol, (−)-α-bisabolol] | 4.3 ± 0.4 | 0.3 ± 0.2 | −93% | 25% | 
CC(C)=CCC[C@](C)(O)[C@@H]1CC=C(C)CC1 [Plant bisabolol] | 4.8 ± 0.5 | 1.5 ± 0.4 | −69% |  | did not show any significant reduction
CC(C)=CCC[C@](C)(O)[C@@H]1CC=C(C)CC1 [Synthetic bisabolol] | 4.4 ± 0.5 | 1.3 ± 0.4 | −70% |  | did not show any significant reduction
